Results: US8324227B2, “Thieno[2,3-D]-pyrimidin-4(3H)-one compounds with antifungal properties and process thereof” (FDC Limited, priority 2008, dated 2012)
Values after ≈ are worked out from the molar mass of the structure shown.

Experiments:
Experiment in all cases: Antifungal susceptibility, MIC by broth macro-dilution method
[1] = tested on: F. proliferatum (ATCC 10052); format: cell-based, Fusarium proliferatum; settings: end points after 48 hours, NI till x = no inhibition up to x; for MIC: Fusarium proliferatum, ATCC10052, RPMI 1640 medium with MOPS buffer, read-out: MIC against fungi, F. proliferatum (ATCC 10052); for MIC against fungi, F. proliferatum (ATCC 10052): RPMI 1640 medium with MOPS buffer
Protocol: (§1) In vitro evaluation of antifungal activity was performed by determining the minimum inhibitory concentration (MIC). Anti-fungal susceptibility testing of these anti-fungal compounds was done by broth dilution method using RPMI 1640 medium with MOPS buffer. Known anti-fungal agents like fluconazole and amphotericin-B were used as positive control. End points were determined after 48 hours visually and by using spectrophotometer wherever necessary. Different dilutions were, tried and various sets of experiments performed.

[2] = tested on: A. niger (ATCC 16404); format: cell-based, Aspergillus niger; settings: end points after 48 hours, NI till x = no inhibition up to x; for MIC: Aspergillus niger, ATCC16404, RPMI 1640 medium with MOPS buffer, read-out: MIC against fungi, A. niger (ATCC 16404); for MIC against fungi, A. niger (ATCC 16404): RPMI 1640 medium with MOPS buffer
Protocol: as §1

[3] = tested on: C. albicans (ATCC 24433); format: cell-based, Candida albicans; settings: end points after 48 hours, NI till x = no inhibition up to x; for MIC: Candida albicans, ATCC24433, RPMI 1640 medium with MOPS buffer, read-out: MIC against fungi, C. albicans (ATCC 24433); for MIC against fungi, C. albicans (ATCC 24433): RPMI 1640 medium with MOPS buffer
Protocol: as §1

Compound	MIC [1]	MIC [2]	MIC [3]	MIC against fungi, F. proliferatum (ATCC 10052) [1]	MIC against fungi, A. niger (ATCC 16404) [2]	MIC against fungi, C. albicans (ATCC 24433) [3]
CCCCCCc1sc2ncn(CC(O)(Cn3cncn3)c3ccc(F)cc3F)c(=O)c2c1C (stereo not drawn) [Compound 1-A10, 3-[2-(2,4-Difluorophenyl)-2-hydroxy-3-[1,2,4]-triazol-1-yl-propyl]-6-n-hexyl-5-methyl-thieno[2,3-d]pyrimidin-4(3H)-one]	> 2 µg/mL	> 2 µg/mL	1 to 2 µg/mL (≈ 2.05 to 4.1 µM)			
O=c1c2cc(CCCO)sc2ncn1CC(O)(Cn1cncn1)c1ccc(F)cc1F (stereo not drawn) [Compound 1-A27, 3-[2-(2,4-Difluorophenyl)-2-hydroxy-3-[1,2,4]-triazol-1-yl-propyl]-6-(3-hydroxypropyl)-thieno[2,3-d]pyrimidin-4(3H)-one]	> 128 µg/mL	> 128 µg/mL	2 to 4 µg/mL (≈ 4.47 to 8.94 µM)			
CC(C)(C)OC(=O)NCC(=O)OCCCCc1cc2c(=O)n(CC(O)(Cn3cncn3)c3ccc(F)cc3F)cnc2s1 (stereo not drawn) [Compound 1-A24, 3-[2-(2,4-Difluorophenyl)-2-hydroxy-3-[1,2,4]triazol-1-yl-propyl]-6-(4-N-Bocaminoacetyloxybutyl)-thieno[2,3-d]pyrimidin-4(3H)-one]				NI till 16 μg/ml	NI till 16 μg/ml	0.5 to 1 µg/mL
CCCCc1c(CCC)sc2ncn(CC(O)(Cn3cncn3)c3ccc(F)cc3F)c(=O)c12 (stereo not drawn) [Compound 1-A05, 5-n-Butyl-3-[2-(2,4-difluorophenyl)-2-hydroxy-3-[1,2,4]-triazol-1-yl-propyl]-6-n-propyl-thieno[2,3-d]pyrimidin-4(3H)-one]	> 4 µg/mL	> 4 µg/mL	2 to 4 µg/mL (≈ 4.1 to 8.2 µM)			
CCCCCCCCCc1cc2c(=O)n(CC(O)(Cn3cncn3)c3ccc(F)cc3F)cnc2s1 (stereo not drawn) [Compound 1-A17, 3-[2-(2,4-Difluorophenyl)-2-hydroxy-3-[1,2,4]-triazol-1-yl-propyl]-6-n-nonylthieno[2,3-d]pyrimidin-4(3H)-one]	> 4 µg/mL	> 4 µg/mL	0.25 to 0.5 µg/mL (≈ 0.485 to 0.97 µM)			
O=c1c2cc(CCCOCc3ccccc3)sc2ncn1CC(O)(Cn1cncn1)c1ccc(F)cc1F (stereo not drawn) [Compound 1-A02, 6-(3-Benzyloxypropyl)-3-[2-(2,4-difluorophenyl)-2-hydroxy-3-[1,2,4]-triazol-1-ylpropyl]-thieno[2,3-d]pyrimidin-4(3H)-one]	> 4 µg/mL	> 4 µg/mL	0.06 to 0.12 µg/mL (≈ 0.112 to 0.223 µM)			
CC(=O)OCCCCCCCc1cc2c(=O)n(CC(O)(Cn3cncn3)c3ccc(F)cc3F)cnc2s1 (stereo not drawn) [Compound 1-A12, 6-(7-Acetoxyheptyl)-3-[2-(2,4-difluorophenyl)-2-hydroxy-3-[1,2,4]-triazol-1-ylpropyl]-thieno[2,3-d]pyrimidin-4(3H)-one]	> 2 µg/mL	> 2 µg/mL	0.12 to 0.25 µg/mL (≈ 0.22 to 0.458 µM)			
Cc1cc2c(=O)n(CC(O)(Cn3cncn3)c3ccc(F)cc3F)cnc2s1 (stereo not drawn) [Compound 1-A28, 3-[2-(2,4-Difluorophenyl)-2-hydroxy-3-[1,2,4]-triazol-1-yl-propyl]-6-methylthieno[2,3-d]pyrimidin-4(3H)-one]	> 64 µg/mL	> 64 µg/mL	0.25 to 0.5 µg/mL (≈ 0.62 to 1.24 µM)			
CCc1cc2c(=O)n(CC(O)(Cn3cncn3)c3ccc(F)cc3F)cnc2s1 (stereo not drawn) [Compound 1-A22, 3-[2-(2,4-Difluorophenyl)-2-hydroxy-3-[1,2,4]triazol-1-yl-propyl]-6-ethylthieno[2,3-d]pyrimidin-4(3H)-one]	> 16 µg/mL	> 16 µg/mL	0.06 to 0.12 µg/mL (≈ 0.144 to 0.287 µM)			
CC(=O)OCCCc1cc2c(=O)n(CC(O)(Cn3cncn3)c3ccc(F)cc3F)cnc2s1 (stereo not drawn) [Compound 1-A26, 3-[2-(2,4-Difluorophenyl)-2-hydroxy-3-[1,2,4]-triazol-1-yl-propyl]-6-(3-acetoxypropyl)-thieno[2,3-d]pyrimidin-4(3H)-one]	> 64 µg/mL	> 64 µg/mL	1 to 2 µg/mL (≈ 2.04 to 4.09 µM)			
Cc1c(Cc2ccccc2)sc2ncn(CC(O)(Cn3cncn3)c3ccc(F)cc3F)c(=O)c12 (stereo not drawn) [Compound 1-A15, 6-Benzyl-3-[2-(2,4-difluorophenyl)-2-hydroxy-3-[1,2,4]-triazol-1-yl-propyl]-5-methyl-thieno[2,3-d]pyrimidin-4(3H)-one]	> 4 µg/mL	> 4 µg/mL	1 to 2 µg/mL (≈ 2.03 to 4.05 µM)			
O=c1c2c3c(sc2ncn1CC(O)(Cn1cncn1)c1ccc(F)cc1F)CCCCCCCCCC3 (stereo not drawn) [Compound 1-A19, 3-[2-(2,4-Difluorophenyl)-2-hydroxy-3-[1,2,4]-triazol-1-yl-propyl]3,5,6,7,8,9,10,11,12,13,14-undecahydrocyclododeca[4,5]thieno[2,3-d]pyrimidin-4(3H)-one]				NI till 2 μg/ml	NI till 2 μg/ml	NI till 2 μg/ml
O=c1c2c3c(sc2ncn1CC(O)(Cn1cncn1)c1ccc(F)cc1F)CCC3 (stereo not drawn) [Compound 1-A07, 3-[2-(2,4-Difluorophenyl)-2-hydroxy-3-[1,2,4]-triazol-1-yl-propyl]-3,5,6,7-tetrahydrocyclopenta[4,5]thieno[2,3-d]pyrimidin-4(3H)-one]				NI till 2 μg/ml	NI till 2 μg/ml	0.25 to 0.5 µg/mL

The remaining lines, values ahead:

MIC [1]	MIC [2]	MIC [3]	MIC against fungi, F. proliferatum (ATCC 10052) [1]	MIC against fungi, A. niger (ATCC 16404) [2]	MIC against fungi, C. albicans (ATCC 24433) [3]	Compound
> 64 µg/mL	> 64 µg/mL	1 to 2 µg/mL (≈ 2.17 to 4.33 µM)				O=c1c2cc(CCCCO)sc2ncn1CC(O)(Cn1cncn1)c1ccc(F)cc1F (stereo not drawn) [Compound 1-A23, 3-[2-(2,4-Difluorophenyl)-2-hydroxy-3-[1,2,4]-triazol-1-yl-propyl]-6-(4-hydroxybutyl)-thieno[2,3-d]pyrimidin-4(3H)-one]
			NI till 4 μg/ml	NI till 4 μg/ml	2 to 4 µg/mL	CCCCCc1c(C)sc2ncn(CC(O)(Cn3cncn3)c3ccc(F)cc3F)c(=O)c12 (stereo not drawn) [Compound 1-A08, 3-[2-(2,4-Difluorophenyl)-2-hydroxy-3-[1,2,4]triazol-1-yl-propyl]-6-methyl-5-npentyl-thieno[2,3-d]pyrimidin-4(3H)-one]
> 2 µg/mL	> 2 µg/mL	0.03 to 0.06 µg/mL (≈ 0.0634 to 0.127 µM)				CCCCCCc1cc2c(=O)n(CC(O)(Cn3cncn3)c3ccc(F)cc3F)cnc2s1 (stereo not drawn) [Compound 1-A03, 3-[2-(2,4-Difluorophenyl)-2-hydroxy-3-[1,2,4]-triazol-1-yl-propyl]-6-(n-hexyl)-thieno[2,3-d]pyrimidin-4(3H)-one]
> 2 µg/mL	> 2 µg/mL	0.5 to 1 µg/mL (≈ 1.01 to 2.03 µM)				O=c1c2c(CCc3ccccc3)csc2ncn1CC(O)(Cn1cncn1)c1ccc(F)cc1F (stereo not drawn) [Compound 1-A14, 3-[2-(2,4-Difluorophenyl)-2-hydroxy-3-[1,2,4]triazol-1-yl-propyl]-5(2-phenylethyl)-thieno[2,3-d]pyrimidin-4(3H)-one]
> 8 µg/mL	> 8 µg/mL	4 to 8 µg/mL (≈ 7.71 to 15.4 µM)				NCC(=O)OCCCCc1cc2c(=O)n(CC(O)(Cn3cncn3)c3ccc(F)cc3F)cnc2s1 (stereo not drawn) [Compound 1-A25, 3-[2-(2,4-Difluorophenyl)-2-hydroxy-3-[1,2,4]-triazol-1-yl-propyl]-6-(4-aminoacetyloxybutyl)-thieno[2,3-d]pyrimidin-4(3H)-one]
> 128 µg/mL	64 to 128 µg/mL (≈ 209 to 418 µM)	0.25 to 1 µg/mL (≈ 0.816 to 3.27 µM)				OC(Cn1cncn1)(Cn1cncn1)c1ccc(F)cc1F [Fluconazole, reference compound]
> 16 µg/mL	> 16 µg/mL	0.12 to 0.25 µg/mL (≈ 0.238 to 0.496 µM)				O=c1c2cc(CCCCCCCO)sc2ncn1CC(O)(Cn1cncn1)c1ccc(F)cc1F (stereo not drawn) [Compound 1-A13, 3-[2-(2,4-Difluorophenyl)-2-hydroxy-3-[1,2,4]triazol-1-yl-propyl]-6-(7-hydroxyheptyl)-thieno[2,3-d]pyrimidin-4(3H)-one]
> 4 µg/mL	> 4 µg/mL	0.03 to 0.06 µg/mL (≈ 0.0653 to 0.131 µM)				CCCCCc1cc2c(=O)n(CC(O)(Cn3cncn3)c3ccc(F)cc3F)cnc2s1 (stereo not drawn) [Compound 1-A04, 3-[2-(2,4-Difluorophenyl)-2-hydroxy-3-[1,2,4]-triazol-1-yl-propyl]-6-n-pentylthieno[2,3-d]pyrimidin-4(3H)-one]
			NI till 2 μg/ml	NI till 2 μg/ml	1 to 2 µg/mL	CCCCCc1sc2ncn(CC(O)(Cn3cncn3)c3ccc(F)cc3F)c(=O)c2c1C (stereo not drawn) [Compound 1-A11, 3-[2-(2,4-Difluorophenyl)-2-hydroxy-3-[1,2,4]triazol-1-yl-propyl]-5-methyl-6-npentyl-thieno[2,3-d]pyrimidin-4(3H)-one]
> 32 µg/mL	> 32 µg/mL	0.06 to 0.12 µg/mL (≈ 0.139 to 0.278 µM)				CCCc1cc2c(=O)n(CC(O)(Cn3cncn3)c3ccc(F)cc3F)cnc2s1 (stereo not drawn) [Compound 1-A18, 3-[2-(2,4-Difluorophenyl)-2-hydroxy-3-[1,2,4]-triazol-1-yl-propyl]-6-(n-propyl)-thieno[2,3-d]pyrimidin-4(3H)-one]
> 2 µg/mL	> 2 µg/mL	0.06 to 0.12 µg/mL (≈ 0.123 to 0.246 µM)				CCCCCCCc1cc2c(=O)n(CC(O)(Cn3cncn3)c3ccc(F)cc3F)cnc2s1 (stereo not drawn) [Compound 1-A06, 3-[2-(2,4-Difluorophenyl)-2-hydroxy-3-[1,2,4]-triazol-1-yl-propyl]-6-n-heptylthieno[2,3-d]pyrimidin-4(3H)-one]
> 4 µg/mL	> 4 µg/mL	0.06 to 0.12 µg/mL (≈ 0.109 to 0.218 µM)				O=c1c2cc(CCCCOCc3ccccc3)sc2ncn1CC(O)(Cn1cncn1)c1ccc(F)cc1F (stereo not drawn) [Compound 1-A01, 6-(4-Benzyloxybutyl)-3-[2-(2,4-difluorophenyl)-2-hydroxy-3-[1,2,4]triazol-1-ylpropyl]-thieno[2,3-d]pyrimidin-4(3H)-one]
